Source: PubChem BioAssay (NCI)
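The compound was tested at five concentrations on cells cultured in 96-well plates, with a 48-hour exposure period. TGI: total growth inhibition.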

Legend:
Test in all cases: growth of human tumour cells (NCI), 48 h
[1] = test system: PC-3 prostate
[2] = test system: DU-145 prostate
[3] = test system: SNB-75 CNS
[4] = test system: SF-295 CNS
[5] = test system: MOLT-4 leukemia
[6] = test system: HCT-15 colon
[7] = test system: UACC-257 melanoma
[8] = test system: OVCAR-3 ovarian
[9] = test system: SK-MEL-28 melanoma
[10] = test system: U251 CNS
[11] = test system: CCRF-CEM leukemia
[12] = test system: UACC-62 melanoma
[13] = test system: OVCAR-5 ovarian
[14] = test system: TK-10 renal
[15] = test system: COLO 205 colon
[16] = test system: M14 melanoma
[17] = test system: T-47D breast
[18] = test system: NCI-H226 lung
[19] = test system: OVCAR-4 ovarian
[20] = test system: SK-OV-3 ovarian
[21] = test system: UO-31 renal
[22] = test system: NCI-H522 lung
[23] = test system: SK-MEL-5 melanoma
[24] = test system: HT29 colon
[25] = test system: BT-549 breast
[26] = test system: ACHN renal
[27] = test system: KM12 colon
[28] = test system: NCI-H23 lung
[29] = test system: OVCAR-8 ovarian
[30] = test system: CAKI-1 renal
[31] = test system: K-562 leukemia
[32] = test system: MCF7 breast
[33] = test system: MDA-MB-231 breast
[34] = test system: SW-620 colon
[35] = test system: NCI-H460 lung
[36] = test system: SK-MEL-2 melanoma
[37] = test system: MDA-N
[38] = test system: 786-0 renal
[39] = test system: RXF 393 renal
[40] = test system: IGROV1 ovarian
[41] = test system: A549 NSCLC
[42] = test system: SNB-19 CNS
[43] = test system: EKVX NSCLC
[44] = test system: HOP-62 NSCLC
[45] = test system: HCC-2998 colon
[46] = test system: HCT-116 colon
[47] = test system: NCI/ADR-RES ovarian
[48] = test system: MDA-MB-435
[49] = test system: SN12C renal
[50] = test system: LOX IMVI melanoma
[51] = test system: SR leukemia
[52] = test system: HL-60(TB) leukemia
[53] = test system: SF-539 CNS
[54] = test system: HS 578T breast
[55] = test system: HOP-92 NSCLC
[56] = test system: SF-268 CNS
[57] = test system: A498 renal
[58] = test system: RPMI-8226 leukemia
[59] = test system: MALME-3M melanoma

SMILES: CCC1(O)CC(CCN(Cc2ccccc2)C(=O)OCc2ccccc2)C(OCc2ccccc2)C1O (stereo not drawn)
- TGI [1]: 23.2 µM
- TGI [2]: 36.3 µM
- TGI [3]: 25.7 µM
- TGI [4]: 28.2 µM
- TGI [5]: 7.56 µM
- TGI [6]: 31.7 µM
- TGI [7]: 34.7 µM
- TGI [8]: 26.8 µM
- TGI [9]: 36.4 µM
- TGI [10]: > 100 µM
- TGI [11]: 81.7 µM
- TGI [12]: 28.3 µM
- TGI [13]: 41.2 µM
- TGI [14]: 36.8 µM
- TGI [15]: 34.2 µM
- TGI [16]: 42.3 µM
- TGI [17]: 30.6 µM
- TGI [18]: 25.3 µM
- TGI [19]: 22 µM
- TGI [20]: 34.6 µM
- TGI [21]: 33.7 µM
- TGI [22]: 23.5 µM
- TGI [23]: 30.9 µM
- TGI [24]: 31 µM
- TGI [25]: 33.3 µM
- TGI [26]: 32.2 µM
- TGI [27]: 27.3 µM
- TGI [28]: 30.4 µM
- TGI [29]: 30.1 µM
- TGI [30]: 65.7 µM
- TGI [31]: 19.5 µM
- TGI [32]: 28.8 µM
- TGI [33]: 87.3 µM
- TGI [34]: > 100 µM
- TGI [35]: 31.3 µM
- TGI [36]: 28.7 µM
- TGI [37]: 98.8 µM
- TGI [38]: 39.3 µM
- TGI [39]: 41.9 µM
- TGI [40]: 37.4 µM
- TGI [41]: 27.1 µM
- TGI [42]: 31.6 µM
- TGI [43]: 30.9 µM
- TGI [44]: 29.6 µM
- TGI [45]: 28.9 µM
- TGI [46]: 48.8 µM
- TGI [47]: 25.7 µM
- TGI [48]: 38.2 µM
- TGI [49]: 82 µM
- TGI [50]: 86.7 µM
- TGI [51]: 34.9 µM

SMILES: O=c1c(-c2ccc3c(c2)OCO3)coc2c3c(ccc12)OCO3
- TGI [1]: > 100 µM
- TGI [52]: > 100 µM
- TGI [2]: > 100 µM
- TGI [3]: 49.7 µM
- TGI [4]: 37.1 µM
- TGI [5]: > 100 µM
- TGI [6]: > 100 µM
- TGI [7]: > 100 µM
- TGI [8]: > 100 µM
- TGI [53]: 58.7 µM
- TGI [9]: > 100 µM
- TGI [10]: > 100 µM
- TGI [11]: > 100 µM
- TGI [12]: > 100 µM
- TGI [13]: > 100 µM
- TGI [54]: 59.4 µM
- TGI [55]: 38.5 µM
- TGI [14]: 36.8 µM
- TGI [15]: > 100 µM
- TGI [16]: > 100 µM
- TGI [17]: > 100 µM
- TGI [19]: 70.6 µM
- TGI [56]: 43.3 µM
- TGI [20]: 40.9 µM
- TGI [21]: > 100 µM
- TGI [22]: 37.5 µM
- TGI [57]: 83.1 µM
- TGI [23]: > 100 µM
- TGI [25]: 32.6 µM
- TGI [26]: 38.8 µM
- TGI [27]: > 100 µM
- TGI [28]: 40 µM
- TGI [30]: > 100 µM
- TGI [31]: > 100 µM
- TGI [32]: 33.7 µM
- TGI [33]: 41 µM
- TGI [34]: > 100 µM
- TGI [35]: 32.1 µM
- TGI [36]: > 100 µM
- TGI [37]: > 100 µM
- TGI [38]: 35.5 µM
- TGI [40]: 59.7 µM
- TGI [41]: > 100 µM
- TGI [42]: 44.9 µM
- TGI [43]: > 100 µM
- TGI [44]: 38.2 µM
- TGI [45]: > 100 µM
- TGI [46]: > 100 µM
- TGI [58]: > 100 µM
- TGI [48]: > 100 µM
- TGI [49]: > 100 µM
- TGI [50]: > 100 µM
- TGI [51]: > 100 µM

SMILES: CC(C)Cc1cnc(CC(C)C)c(=O)[nH]1
- TGI [1]: > 100 µM
- TGI [2]: > 100 µM
- TGI [3]: > 100 µM
- TGI [4]: > 100 µM
- TGI [5]: > 100 µM
- TGI [6]: > 100 µM
- TGI [7]: > 100 µM
- TGI [8]: > 100 µM
- TGI [9]: > 100 µM
- TGI [10]: > 100 µM
- TGI [11]: > 100 µM
- TGI [12]: > 100 µM
- TGI [13]: > 100 µM
- TGI [54]: > 100 µM
- TGI [55]: > 100 µM
- TGI [14]: > 100 µM
- TGI [15]: > 100 µM
- TGI [16]: > 100 µM
- TGI [17]: > 100 µM
- TGI [19]: > 100 µM
- TGI [56]: > 100 µM
- TGI [20]: > 100 µM
- TGI [21]: > 100 µM
- TGI [57]: > 100 µM
- TGI [23]: > 100 µM
- TGI [24]: > 100 µM
- TGI [25]: > 100 µM
- TGI [26]: > 100 µM
- TGI [27]: > 100 µM
- TGI [28]: > 100 µM
- TGI [29]: > 100 µM
- TGI [30]: > 100 µM
- TGI [31]: > 100 µM
- TGI [32]: > 100 µM
- TGI [33]: > 100 µM
- TGI [34]: > 100 µM
- TGI [35]: > 100 µM
- TGI [36]: > 100 µM
- TGI [37]: > 100 µM
- TGI [38]: > 100 µM
- TGI [39]: > 100 µM
- TGI [40]: > 100 µM
- TGI [41]: > 100 µM
- TGI [42]: > 100 µM
- TGI [43]: > 100 µM
- TGI [44]: > 100 µM
- TGI [45]: > 100 µM
- TGI [46]: > 100 µM
- TGI [58]: > 100 µM
- TGI [48]: > 100 µM
- TGI [49]: > 100 µM
- TGI [50]: > 100 µM
- TGI [51]: > 100 µM

SMILES: CCOC(=O)c1cc(-c2ccc(OC)cc2)c([N+](=O)[O-])[nH]1
- TGI [1]: > 10 µM
- TGI [52]: > 10 µM
- TGI [2]: > 10 µM
- TGI [3]: > 10 µM
- TGI [4]: > 10 µM
- TGI [5]: > 10 µM
- TGI [6]: > 10 µM
- TGI [7]: > 10 µM
- TGI [8]: > 10 µM
- TGI [53]: > 10 µM
- TGI [9]: > 10 µM
- TGI [10]: > 10 µM
- TGI [11]: > 10 µM
- TGI [12]: > 10 µM
- TGI [13]: > 10 µM
- TGI [54]: > 10 µM
- TGI [55]: > 10 µM
- TGI [14]: > 10 µM
- TGI [15]: > 10 µM
- TGI [16]: > 10 µM
- TGI [17]: > 10 µM
- TGI [18]: > 10 µM
- TGI [19]: > 10 µM
- TGI [56]: > 10 µM
- TGI [20]: > 10 µM
- TGI [21]: > 10 µM
- TGI [22]: > 10 µM
- TGI [57]: > 10 µM
- TGI [23]: > 10 µM
- TGI [24]: > 10 µM
- TGI [25]: > 10 µM
- TGI [26]: > 10 µM
- TGI [27]: > 10 µM
- TGI [28]: > 10 µM
- TGI [29]: > 10 µM
- TGI [30]: > 10 µM
- TGI [31]: > 10 µM
- TGI [32]: > 10 µM
- TGI [33]: > 10 µM
- TGI [34]: > 10 µM
- TGI [35]: > 10 µM
- TGI [36]: > 10 µM
- TGI [37]: > 3.16 µM
- TGI [38]: > 10 µM
- TGI [39]: > 10 µM
- TGI [40]: > 10 µM
- TGI [41]: > 10 µM
- TGI [42]: > 10 µM
- TGI [59]: > 10 µM
- TGI [43]: > 10 µM
- TGI [44]: > 10 µM
- TGI [45]: > 10 µM
- TGI [46]: > 10 µM
- TGI [48]: > 10 µM
- TGI [49]: > 10 µM
- TGI [51]: > 10 µM
